In patent USRE39104E1, “Process for the production of dry pharmaceutical forms and the thus obtained pharmaceutical compositions” (Laboratoires Effik, priority 1994, dated 2006):

Assay: Solubility in water
Type: physicochemical
Description: The dosage of the amount of Medroxy progesterone acetate thus dissolved in water was determined by spectrophotometry at 241 nm.

solubility in water: very low
SMILES: CC(=O)O[C@]1(C(C)=O)CC[C@H]2[C@@H]3C[C@H](C)C4=CC(=O)CC[C@]4(C)[C@H]3CC[C@@]21C [Medroxy progesterone acetate]
